According to doi:10.1101/2025.07.30.667614, “Steric control of signaling bias in the immunometabolic receptor GPR84” (bioRxiv, 2025):

Experiments:
[1] = molecular target: T1, GPR84 (Homo sapiens, UniProt Q9NQS5); test: CHO-K1-based HitHunter cAMP inhibition assay; format: cell-based; settings: wild type GPR84; for EC50: CHO-K1 cells, forskolin 25 μM, read-out: cAMP pEC50 ± SEM (converted); for Emax: normalised to capric acid (100 μM), read-out: cAMP %Emax ± SEM
Protocol: CHO-K1 cells stably expressing human GPR84 (DiscoverX 95-0158C2) were seeded in 384-well plates at 15,000 cells per well in 20 μL of F12 medium supplemented with 10% fetal bovine serum (FBS), 19 mM HEPES, and 1% penicillin-streptomycin. After overnight incubation at 37 °C and 5% CO2, the medium was removed and replaced with PBS containing 0.1% BSA. Cells were stimulated for 30 min with forskolin (25 μM) and test compounds prepared in Dulbecco’s PBS (DPBS) with 0.1% BSA. Compounds were dissolved in DMSO and diluted appropriately. cAMP levels were quantified using the HitHunter® cAMP Assay for Small Molecules (DiscoverX 90-0075SM2) according to the manufacturer’s protocol. Luminescence was measured 18 h post-assay using a PHERAstar® FS plate reader (BMG Labtech).

[2] = molecular target: T1, GPR84; test: CHO-K1-based PathHunter β-arrestin-2 recruitment assay; format: cell-based; parameters: host or cells: CHO-K1; settings: for change in efficacy in β-arrestin-2 recruitment: compared to OX04929 (so in the source); for Emax: read-out: β-arrestin-2 %Emax ± SEM; for EC50: wild type GPR84, CHO-K1 PathHunter, read-out: β-arrestin-2 pEC50 ± SEM (converted)
Protocol: Cells were stimulated with test ligands for 90 min. Compounds were prepared at 5× concentration in DPBS containing 0.1% BSA and 0.125% Tween-80 to minimise aggregation. β-arrestin recruitment was quantified using the PathHunter® β-Arrestin Assay (DiscoverX 93-0001) following the manufacturer’s instructions. Luminescence was recorded after 18 h using a PHERAstar® FS plate reader.

[3] = molecular target: GPR84-WT (GPR84-Gi2α fusion protein) (Homo sapiens, UniProt Q9NQS5); test: [35S]GTPγS binding assay; format: biochemical; settings: [35S]GTPγS, GPR84-WT; for EC50: Extended Data Table 3, read-out: pEC50 ± SEM (converted)
Chain of GPR84-WT (GPR84-Gi2α fusion protein) (Q9NQS5 whole entry, the tested form may be a part): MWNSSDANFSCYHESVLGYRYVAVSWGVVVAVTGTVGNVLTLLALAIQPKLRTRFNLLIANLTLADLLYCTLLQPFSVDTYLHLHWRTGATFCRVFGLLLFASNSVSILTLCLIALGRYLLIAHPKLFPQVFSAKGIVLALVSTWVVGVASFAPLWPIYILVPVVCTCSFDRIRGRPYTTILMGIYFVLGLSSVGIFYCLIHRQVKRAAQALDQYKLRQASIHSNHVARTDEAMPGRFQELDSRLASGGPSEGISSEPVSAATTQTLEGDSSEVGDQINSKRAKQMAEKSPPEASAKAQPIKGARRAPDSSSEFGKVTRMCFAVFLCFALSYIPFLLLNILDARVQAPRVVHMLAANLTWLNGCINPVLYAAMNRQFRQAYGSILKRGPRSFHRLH
Chain of GPR84-WT (GPR84-Gi2α fusion protein) (P04899 with tags, fused parts or gaps C352I partner): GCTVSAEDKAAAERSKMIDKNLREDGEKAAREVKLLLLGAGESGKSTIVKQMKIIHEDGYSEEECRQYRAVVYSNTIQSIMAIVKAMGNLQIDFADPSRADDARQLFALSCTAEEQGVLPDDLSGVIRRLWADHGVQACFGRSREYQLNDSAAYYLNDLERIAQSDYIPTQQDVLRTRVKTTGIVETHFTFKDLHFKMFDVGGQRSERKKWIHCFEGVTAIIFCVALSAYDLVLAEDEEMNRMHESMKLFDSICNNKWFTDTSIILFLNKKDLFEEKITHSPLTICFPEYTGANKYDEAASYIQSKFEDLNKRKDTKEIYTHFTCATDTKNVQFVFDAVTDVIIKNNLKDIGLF
Protocol: (§1) Membranes were generated from Flp-In™ T-REx™ 293 cells following 100 ng/ml doxycycline treatment to induce receptor expression. Cells were washed with ice-cold phosphate-buffered saline (PBS), removed from dishes by scraping and centrifuged at 1,800 x g for 5 min at 4 °C. Pellets were resuspended in TE buffer (10mM Tris-HCl, 0.1 mM EDTA; pH 7.4) containing a protease inhibitor mixture and homogenized with a 5 ml hand-held homogenizer. Samples were centrifuged at 450 x g for 5 min at 4 °C and the supernatant was further centrifuged at 90,000 x g for 45 min at 4 °C. The resulting pellet was resuspended in TE buffer and protein content was assessed using a BCA protein assay kit.
(§2) Prepared membrane protein (3 μg per well) was incubated in assay buffer (20 mM HEPES, 5 mM MgCl2, 160 mM NaCl, 0.05 % fatty-acid-free bovine serum albumin; pH 7.4) containing the indicated ligand concentrations. The reaction was initiated by addition of [^35S]GTPγS (100 nCi per reaction) with 1 μM GDP, and incubated at 30 °C for 60 min. The reaction was terminated by rapid vacuum filtration through GF/C glassfibre filter-bottom 96-well microplates using a UniFilter FilterMate Harvester (PerkinElmer). Unbound radioligand was removed from filters by three washes with ice-cold PBS. Ultima Gold™ XR was added to dried filters, and [^35S]GTPγS binding quantified by liquid scintillation spectroscopy.

[4] = molecular target: T2, GPR84 Y332F (Homo sapiens, UniProt Q9NQS5, Y332F); test: [35S]GTPγS binding assay; format: biochemical; settings: [35S]GTPγS; Y332F; read-out: Emax ± SEM
T2 construct: FLAG (N); Gαi2-Cys352Ile (fusion partner) (C); expressed in transfected cells
T2 sequence (Q9NQS5 whole entry Y332F, the tested form may be a part): as the sequence (Q9NQS5 whole entry, the tested form may be a part) above, with Y332F counted along it
Protocol: as §1, §2

[5] = molecular target: T3, GPR84 N362S (Homo sapiens, UniProt Q9NQS5, N362S); test: [35S]GTPγS binding assay; format: biochemical; settings: [35S]GTPγS; N362S; read-out: Emax ± SEM
T3 construct: FLAG (N); Gαi2-Cys352Ile (fusion partner) (C); expressed in transfected cells
T3 sequence (Q9NQS5 whole entry N362S, the tested form may be a part): as the sequence (Q9NQS5 whole entry, the tested form may be a part) above, with N362S counted along it
Protocol: as §1, §2

[6] = molecular target: T4, GPR84 Y332A (Homo sapiens, UniProt Q9NQS5, Y332A); test: [35S]GTPγS binding assay; format: biochemical; settings: [35S]GTPγS; Y332A; read-out: Emax ± SEM
T4 construct: FLAG (N); Gαi2-Cys352Ile (fusion partner) (C); expressed in transfected cells
T4 sequence (Q9NQS5 whole entry Y332A, the tested form may be a part): as the sequence (Q9NQS5 whole entry, the tested form may be a part) above, with Y332A counted along it
Protocol: as §1, §2

[7] = molecular target: T5, wild type GPR84 (Homo sapiens, UniProt Q9NQS5); test: pThr263/pThr264 immunoblot of immunoprecipitated GPR84-eYFP; format: cell-based; settings: 1 μM
T5 construct: expressed in transfected cells
T5 sequence (Q9NQS5 whole entry): as the sequence (Q9NQS5 whole entry, the tested form may be a part) above
Protocol: eYFP-linked receptor constructs were immunoprecipitated from 200 μl cell lysates using GFP-Trap® agarose beads (Proteintech) according to manufacturer’s instructions. Immunocomplexes were washed three times in washing buffer, resuspended in 100 μl 2 × SDS-PAGE sample buffer and incubated at 60 °C for 10 min. Following centrifugation at 2500g for 5 min, 20 μl of immunoprecipitated proteins was resolved by SDS-PAGE on 4% to 12% BisTris gels. After separation, the proteins were transferred electrophoretically onto nitrocellulose membrane, which was then blocked using 5% bovine serum albumin (BSA) in Tris-buffered saline (TBS, 50 mM Tris-Cl, 150 mM NaCl, pH 7.6) for 1 h at room temperature on an orbital shaker. The membrane was then incubated with appropriate primary antibody in 5% BSA in TBS supplemented with 0.1% Tween (TBS-T) overnight at 4 °C. Anti-pThr^263/pThr^264 antiserum was diluted 1:2000 and anti-GFP was diluted 1:10,000. Subsequently, the membrane was washed (3 × 10 min with TBS-T) and incubated for 2 h with anti-rabbit secondary antibody diluted 1:10,000 in 5% BSA in TBS-T. After washing (3 × 10 min with TBS-T), proteins were detected using an Odyssey imaging system (Licor) according to the manufacturer’s instructions.

[8] = molecular target: T6, GPR84 N104A (GPR84-Gi2α fusion protein) (Homo sapiens, UniProt Q9NQS5, N104A); test: [35S]GTPγS binding assay; format: biochemical; settings: [35S]GTPγS; N104A; read-out: Emax ± SEM
T6 construct: FLAG (N); Gαi2-Cys352Ile (fusion partner) (C); expressed in transfected cells
T6 sequence (Q9NQS5 whole entry N104A, the tested form may be a part): as the sequence (Q9NQS5 whole entry, the tested form may be a part) above, with N104A counted along it
Protocol: as §1, §2

[9] = molecular target: T7, GPR84 Y69A (GPR84-Gi2α fusion protein) (Homo sapiens, UniProt Q9NQS5, Y69A); test: [35S]GTPγS binding assay; format: biochemical; settings: [35S]GTPγS; Y69A; read-out: Emax ± SEM
T7 construct: FLAG (N); Gαi2-Cys352Ile (fusion partner) (C); expressed in transfected cells
T7 sequence (Q9NQS5 whole entry Y69A, the tested form may be a part): as the sequence (Q9NQS5 whole entry, the tested form may be a part) above, with Y69A counted along it
Protocol: as §1, §2

[10] = molecular target: T8, GPR84 Y81A (GPR84-Gi2α fusion protein) (Homo sapiens, UniProt Q9NQS5, Y81A); test: [35S]GTPγS binding assay; format: biochemical; settings: [35S]GTPγS; Y81A; read-out: Emax ± SEM
T8 construct: FLAG (N); Gαi2-Cys352Ile (fusion partner) (C); expressed in transfected cells
T8 sequence (Q9NQS5 whole entry Y81A, the tested form may be a part): as the sequence (Q9NQS5 whole entry, the tested form may be a part) above, with Y81A counted along it
Protocol: as §1, §2

[11] = molecular target: T9, GPR84 W360A (GPR84-Gi2α fusion protein) (Homo sapiens, UniProt Q9NQS5, W360A); test: [35S]GTPγS binding assay; format: biochemical; settings: [35S]GTPγS; W360A; read-out: Emax ± SEM
T9 construct: FLAG (N); Gαi2-Cys352Ile (fusion partner) (C); expressed in transfected cells
T9 sequence (Q9NQS5 whole entry W360A, the tested form may be a part): as the sequence (Q9NQS5 whole entry, the tested form may be a part) above, with W360A counted along it
Protocol: as §1, §2

[12] = molecular target: T10, GPR84 S169A (GPR84-Gi2α fusion protein) (Homo sapiens, UniProt Q9NQS5, S169A); test: [35S]GTPγS binding assay; format: biochemical; settings: [35S]GTPγS; S169A; read-out: Emax ± SEM
T10 construct: FLAG (N); Gαi2-Cys352Ile (fusion partner) (C); expressed in transfected cells
T10 sequence (Q9NQS5 whole entry S169A, the tested form may be a part): as the sequence (Q9NQS5 whole entry, the tested form may be a part) above, with S169A counted along it
Protocol: as §1, §2

[13] = molecular target: T11, GPR84 R172A (GPR84-Gi2α fusion protein) (Homo sapiens, UniProt Q9NQS5, R172A); test: [35S]GTPγS binding assay; format: biochemical
T11 construct: FLAG (N); Gαi2-Cys352Ile (fusion partner) (C); expressed in transfected cells
T11 sequence (Q9NQS5 whole entry R172A, the tested form may be a part): as the sequence (Q9NQS5 whole entry, the tested form may be a part) above, with R172A counted along it
Protocol: as §1, §2

[14] = molecular target: T12, GPR84 T167A (GPR84-Gi2α fusion protein) (Homo sapiens, UniProt Q9NQS5, T167A); test: [35S]GTPγS binding assay; format: biochemical; settings: [35S]GTPγS; T167A; read-out: Emax ± SEM
T12 construct: FLAG (N); Gαi2-Cys352Ile (fusion partner) (C); expressed in transfected cells
T12 sequence (Q9NQS5 whole entry T167A, the tested form may be a part): as the sequence (Q9NQS5 whole entry, the tested form may be a part) above, with T167A counted along it
Protocol: as §1, §2

T1 sequence (Q9NQS5 whole entry): as the sequence (Q9NQS5 whole entry, the tested form may be a part) above

CC(C)c1cc(CCCCc2cc(O)c[n+]([O-])c2)ccc1Cl [OX04964]
EC50 [1]: 0.0145 nM
Emax [1]: 94 ± 7.4%
change in efficacy in β-arrestin-2 recruitment [2]: no significant change
Emax [2]: 9 ± 1.4%

C#Cc1cc(CCCCc2cc(O)c[n+]([O-])c2)ccc1Cl [OX04963]
EC50 [1]: 0.00646 nM
Emax [1]: 106 ± 3.8%
Emax [2]: 15 ± 1.1%
EC50 [2]: 37.2 nM

[O-][n+]1cc(O)cc(CCCCc2ccc(Cl)cc2)c1 [OX04540]
EC50 [1]: 0.0204 nM
Emax [1]: 97 ± 0.7%
Emax [2]: 81 ± 5.3%
EC50 [2]: 110 nM

C=Cc1cc(CCCCc2cc(O)c[n+]([O-])c2)ccc1Cl [OX04962]
EC50 [1]: 0.00933 nM
Emax [1]: 97 ± 3.4%
change in efficacy in β-arrestin-2 recruitment [2]: no significant change
Emax [2]: 18 ± 2.2%
EC50 [2]: 178 nM

[O-][n+]1cc(O)cc(CCCCc2ccc(Cl)c(C(F)F)c2)c1 [OX04959]
EC50 [1]: 0.00724 nM
Emax [1]: 95 ± 11.5%
EC50 [3]: 3.98 nM
Emax [2]: 24 ± 2.3%
EC50 [2]: 151 nM

[O-][n+]1cc(O)cc(CCCCc2ccc(Cl)c(CF)c2)c1 [OX04960]
EC50 [1]: 0.0102 nM
Emax [1]: 107 ± 2.1%
EC50 [3]: 6.31 nM
Emax [2]: 45 ± 1.2%
EC50 [2]: 447 nM

[O-][n+]1cc(O)cc(CCCCc2ccc(Cl)c(F)c2)c1 [OX04958]
EC50 [1]: 0.0407 nM
Emax [1]: 99 ± 0.1%
Emax [2]: 72 ± 1.3%
EC50 [2]: 70.8 nM

[O-][n+]1cc(O)cc(CCCCc2ccc(Cl)c(Br)c2)c1 [OX04956]
EC50 [1]: 0.00912 nM
Emax [1]: 98 ± 2.1%
Emax [2]: 34 ± 6%
EC50 [2]: 138 nM

[O-][n+]1cc(O)cc(CCCCc2ccc(Cl)c(Cl)c2)c1 [OX04957]
EC50 [1]: 0.0389 nM
Emax [1]: 102 ± 3%
Emax [2]: 46 ± 5.8%
EC50 [2]: 209 nM

[O-][n+]1cc(O)cc(CCCCc2ccc(Cl)c(C3CC3)c2)c1 [OX04965]
EC50 [1]: 0.00398 nM
Emax [1]: 103 ± 3.7%
change in efficacy in β-arrestin-2 recruitment [2]: no significant change
Emax [2]: 9 ± 3%

CCc1cc(CCCCc2cc(O)c[n+]([O-])c2)ccc1Cl [OX04961]
EC50 [1]: 0.0112 nM
Emax [1]: 103 ± 3.6%
change in efficacy in β-arrestin-2 recruitment [2]: no significant change
Emax [2]: 21 ± 0.3%
EC50 [2]: 39.8 nM

Fc1cc(F)c2[nH]cc(Cc3c[nH]c4c(F)cc(F)cc34)c2c1 [PSB-16671, di(5,7-difluoro-1H-indole-3-yl)methane, reference compound]
Emax [4]: 100%
Emax [5]: 100%
Emax [6]: 100%

CC1(c2cc(CCCCc3cc(O)c[n+]([O-])c3)ccc2Cl)CC1 [OX04966]
EC50 [1]: 0.17 nM
Emax [1]: 107 ± 5.6%
change in efficacy in β-arrestin-2 recruitment [2]: no significant change
Emax [2]: 5 ± 1.5%

[O-][n+]1cc(O)cc(CCCCc2ccc(Cl)c(CO)c2)c1 [OX04955]
EC50 [1]: 0.0355 nM
Emax [1]: 101 ± 1.5%
Emax [2]: 21 ± 2.9%
EC50 [2]: 263 nM

CCCCCCCc1cc(O)c[n+]([O-])c1 [OX04539]
phosphorylation of Thr263 and Thr264 (immunoblot) [7]: promoted phosphorylation
Emax [1]: 100 ± 0.8%
Emax [8]: 150 ± 23%
Emax [4]: 167 ± 2%
Emax [9]: 101 ± 14%
Emax [10]: 134 ± 5%
Emax [11]: 94 ± 13%
Emax [12]: 84 ± 4%
Emax [13]: 42 ± 4%
Emax [14]: 139 ± 7%
Emax [5]: 196 ± 32%
Emax ([3]; Extended Data Tables 1 and 5, read-out: Emax ± SEM): 150 ± 14%
Emax [6]: 57 ± 10%
Emax [2]: 100%
